Active and inactive are the calls of the source. The rule behind the calls is not given here.
What was measured:
[1] = system: SH-SY5Y; assay: Cytotoxicity against human SH-SY5Y cells assessed as cell viability at 10 uM after 48 hrs by MTT assay relative to control; type: functional; details: for viability at 10 µM: Homo sapiens, SH-SY5Y, 48 h, read-out: Activity
[2] = system: SH-SY5Y; assay: Cytotoxicity against human SH-SY5Y cells assessed as cell viability after 48 hrs by MTT assay; type: functional, cell-based
[3] = system: SH-SY5Y; assay: Cell cycle arrest in human SH-SY5Y cells assessed as accumulation at G2/M phase at 3 uM after 16 hrs by flow cytometry; type: functional
[4] = target: Histone deacetylase (Homo sapiens) (UniProt Q13547+O15379+Q9UBN7+Q92769+Q9UQL6+Q8WUI4+Q9BY41+Q96DB2+P56524+Q9UKV0+Q969S8); details: SH-SY5Y, at 10 µM
Description: Inhibition of HDAC in human SHSY5Y cells at 10 uM by fluorimetric cellular activity assay

[5] = target: Histone deacetylase; assay: Inhibition of HDAC in human SHSY5Y cells by fluorimetric cellular activity assay; type: cell-based; details: sh-sy5y

| SMILES | viability at 10 µM [1] | IC50 [2] | other results |
| --- | --- | --- | --- |
| CCCCCCC(C(=O)NC1CCCCC1)N(CCc1ccccc1)C(=O)CCCCCC(=O)NO (stereo not given) | 35% | 2.9 µM | – |
| O=C(CCCCCC(=O)N(Cc1ccccc1)C(Cc1ccccc1)C(=O)NC1CCCCC1)NO (stereo not given) | 27.4% | 2.5 µM | Activity [3]: 34.3%; inhibition [4]: Active; IC50 [5]: 1.2 µM |
| CCCCCCCC(C(=O)NCCc1ccccc1)N(Cc1ccccc1)C(=O)CCCCCCC(=O)NO (stereo not given) | 53% | – | – |
| O=C(CCCCCC(=O)N(CCc1ccccc1)C(Cc1ccccc1)C(=O)NCc1ccccc1)NO (stereo not given) | 34.9% | 7.5 µM | – |
| O=C(CCCCCCC(=O)N(Cc1ccccc1)C(Cc1ccccc1)C(=O)NCCc1ccccc1)NO (stereo not given) | 53.1% | – | – |
| Nc1ccccc1NC(=O)CCCCCC(=O)N(Cc1ccccc1)C(Cc1ccccc1)C(=O)NC1CCCCC1 (stereo not given) | 91.6% | – | – |
| O=C(CCCCCC(=O)N(CCc1ccccc1)C(Cc1ccccc1)C(=O)NCCc1ccccc1)NO (stereo not given) | 30.2% | 2.9 µM | – |
| O=C(CCCCCCC(=O)N(Cc1ccccc1)C(Cc1ccc(-c2ccccc2)cc1)C(=O)NCCc1ccccc1)NO (stereo not given) | 22.2% | 4.2 µM | Activity [3]: 11.3%; inhibition [4]: Active; IC50 [5]: 4.4 µM |
| CN(C(=O)CCCCCCC(=O)NO)C(Cc1ccccc1)C(=O)NCCc1ccccc1 (stereo not given) | 94.4% | – | – |
| O=C(CCCCCC(=O)N(Cc1ccccc1)C(Cc1ccccc1)C(=O)NCCc1ccccc1)NO (stereo not given) | 30.8% | 7.6 µM | – |
| Nc1ccccc1NC(=O)CCCCCCC(=O)N(Cc1ccccc1)C(Cc1ccc(-c2ccccc2)cc1)C(=O)NCCc1ccccc1 (stereo not given) | 74% | – | – |
| O=C(CCCCCCC(=O)Nc1ccccc1)NO [VORINOSTAT] | – | – | Activity [3]: 34%; Activity [1]: 33.8% |

Source: ChEMBL document CHEMBL1138448, “Synthesis, biological evaluation, and molecular docking of Ugi products containing a zinc-chelating moiety as novel inhibitors of histone deacetylases” (J Med Chem, 2009)
